The text below walks through data of ChEMBL document CHEMBL1128832, “Substituted alkylpyridines as P3 ligands for the hydroxyethylpiperazine class of HIV-1 protease inhibitors: Improved pharmacokinetic profiles” (Bioorg Med Chem Lett, 1995).

pIC50: −log10 of the molar value.

For one data set, the system named is MT4. Briefly: Antiviral activity in MT-4 human lymphoid cells infected with IIIB isolate by viral spread assay. The class given is functional. The following applies: read-out: CIC95.
The nature of data set [1]: Half life to reach the blood concentration was determined in dogs after oral administration (10 mg/kg) as a 0.05 M citric acid solution. The format is ADME, organism-based, Canis lupus familiaris. The following applies: dog.
Data set [2] can be described thus: Area under curve was determined in dogs after oral administration (10 mg/kg) as a 0.05 M citric acid solution. The format is ADME, organism-based, Canis lupus familiaris. The following applies: dog, in vivo.
A short description of data set [3]: Maximum plasma concentration in dogs after oral administration (10 mg/kg) as a 0.05 M citric acid solution. The class given is ADME, organism-based, Canis lupus familiaris. Set-up: dose 10 mg/kg, route oral. The following applies: dog.
The nature of data set [4]: Maximum time taken to reach maximum blood concentration was determined in dogs after oral administration (10 mg/kg) as a 0.05 M citric acid solution. The format is ADME, organism-based, Canis lupus familiaris. The following applies: dog.
A short description of data set [5]: Half life to reach the blood concentration was determined in dogs after oral administration (8 mg/kg) as a 0.05 M citric acid solution. Particulars: dog. The format is ADME, organism-based, Canis lupus familiaris.
Data set [6] is described as follows: Area under curve was determined in dogs after oral administration (8 mg/kg) as a 0.05 M citric acid solution. The class given is ADME, organism-based, Canis lupus familiaris. The following applies: dog, in vivo.
Data set [7] in a line: Maximum time taken to reach maximum blood concentration was determined in dogs after oral administration (8 mg/kg) as a 0.05 M citric acid solution. Particulars: dog. The format is ADME, organism-based, Canis lupus familiaris.
A short description of data set [8]: Maximum plasma concentration in dogs after oral administration (8 mg/kg) as a 0.05 M citric acid solution. The class given is ADME, organism-based, Canis lupus familiaris. Set-up: dose 8 mg/kg, route oral. The following applies: dog.
Data set [9] addresses Human immunodeficiency virus type 1 protease (Human immunodeficiency virus 1, UniProt Q72874). Briefly: In vitro inhibitory activity against HIV-1 protease enzyme.

Regarding `CC(C)c1cc(CN2CCN(C[C@@H](O)[C@H](Cc3ccccc3)NC(=O)O[C@@H]3CCS(=O)(=O)[C@@H]3C(C)C)[C@H](C(=O)NC(C)(C)C)C2)ccn1`, the IC95 with MT4 stood at 67 nM.
Consider `CC(C)c1cc(CN2CCN(C[C@@H](O)[C@H](Cc3ccccc3)NC(=O)O[C@@H]3CCS(=O)(=O)[C@@H]3C(C)C)[C@H](C(=O)NC(C)(C)C)C2)cc(C(C)C)n1`, for which the IC95 in the data set with MT4 came to 50 nM.
For `CC(C)[C@@H]1[C@H](OC(=O)N[C@@H](Cc2ccccc2)[C@H](O)CN2CCN(Cc3ccncc3)C[C@H]2C(=O)NC(C)(C)C)CCS1(=O)=O`, in data set [1], the half-life (commonly how long it takes for the measured level to halve) was determined as 24 min. Moreover, the AUC – broadly, the area under the concentration-time curve, a measure of exposure – in data set [2] came out at 4.3 µM·h. Also, the IC95 with MT4 amounted to 200 nM. Moreover, the Cmax (commonly the highest concentration seen after dosing) in data set [3] was found to be 6.7 µM. In [4], the Tmax (as a rule, the time at which the peak concentration occurs) was 25 min.
`CCc1cc(CN2CCN(C[C@@H](O)[C@H](Cc3ccccc3)NC(=O)O[C@@H]3CCS(=O)(=O)[C@@H]3C(C)C)[C@H](C(=O)NC(C)(C)C)C2)cc(CC)n1` showed a half-life in data set [1] of 36 min. The molecule further returned an area under the curve (AUC) in data set [2] of 2.9 µM·h. Also, in the data set on MT4, the IC95 stood at 42 nM. In addition, the peak level in data set [3] (Cmax) was 3 µM. In addition, the time of peak concentration (Tmax) in [4] is 25 min.
On to `CCc1cc(CN2CCN(C[C@@H](O)[C@H](Cc3ccccc3)NC(=O)O[C@@H]3CCS(=O)(=O)[C@@H]3C(C)C)[C@H](C(=O)NC(C)(C)C)C2)ccn1`, for which the half-life in data set [1] was 91 min. In data set [2], this molecule displayed an AUC of 5.4 µM·h. Also, the IC95 in the data set on MT4 was determined as 81 nM. In data set [3], this molecule came in with a maximum concentration (Cmax) of 4.1 µM. For the same molecule, the Tmax in data set [4] is 20 min.
`CCCc1cc(CN2CCN(C[C@@H](O)[C@H](Cc3ccccc3)NC(=O)O[C@@H]3CCS(=O)(=O)[C@@H]3C(C)C)[C@H](C(=O)NC(C)(C)C)C2)ccn1` displayed a half-life in [5] of 21 min. Also, the exposure (AUC) in data set [6] came out at 1.5 µM·h. The Tmax in data set [7] is 25 min. For the same molecule, the Cmax in data set [8] is 2.3 µM. The IC95 in the data set on MT4 came to 12 nM.
The corresponding values for `Cc1cc(CN2CCN(C[C@@H](O)[C@H](Cc3ccccc3)NC(=O)O[C@@H]3CCS(=O)(=O)[C@@H]3C(C)C)[C@H](C(=O)NC(C)(C)C)C2)cc(C)n1` are 28 min, 4.5 µM·h, 40 min, 3.6 µM and 50 nM.
In the case of `CCCCc1cc(CN2CCN(C[C@@H](O)[C@H](Cc3ccccc3)NC(=O)O[C@@H]3CCS(=O)(=O)[C@@H]3C(C)C)[C@H](C(=O)NC(C)(C)C)C2)cc(CCCC)n1`, the IC95 with MT4 turned out to be 25 nM.
Take `CCC(C)c1cc(CN2CCN(C[C@@H](O)[C@H](Cc3ccccc3)NC(=O)O[C@@H]3CCS(=O)(=O)[C@@H]3C(C)C)[C@H](C(=O)NC(C)(C)C)C2)ccn1` (stereo not given in full): the negative logarithm of the IC50 (pIC50) (usually the IC50 on a negative log10 scale, so that one unit is a factor of ten) in data set [9] was 8.92. Moreover, the IC95 with MT4 was 25 nM.
For the molecule `Cc1cc(CN2CCN(C[C@@H](O)[C@H](Cc3ccccc3)NC(=O)O[C@@H]3CCS(=O)(=O)[C@@H]3C(C)C)[C@H](C(=O)NC(C)(C)C)C2)ccn1`, in data set [1], the half-life came out at 121 min. In [2], this molecule came in with an AUC of 7.4 µM·h. Besides, the IC95 in the data set on MT4 worked out at 75 nM. Also, the Cmax in [3] was determined as 8.6 µM. For the same molecule, the Tmax in [4] was 10 min.
